What was measured:
Format in all cases: in vivo
[1] = system: Amaranthus retroflexus (AMARE); test: Post-emergence herbicidal activity, AMARE; settings: 7 days after treatment; for pest or weed control at 100 ppm: Amaranthus retroflexus, 168 h, Table 3a; for Post-emergence (100 ppm) AMARE: Table 3b
Protocol: (§1) Selected compounds of the invention were screened at 100 PPM against Amaranthus retroflexus (AMARE), Setaria italica (SETIT), and Echinochloa crus-galli (ECHCG). […]
(§2) Compounds were formulated in 25% Acetone, 1% Crop oil concentrate (COC-Agridex), 0.1% Tween-20, and 2.5% Ammonium sulphate (AMS). Three replicate pots were treated with each compound. Treatment consisting of the above formulation excluding active compound was applied as a treatment control (TC). Plants were treated with the test compound solution in a laboratory spray chamber fitted with 8003 flat fan nozzles calibrated to deliver 187-200 L ha^−1 at 269 kPa. Plants were placed back in the growth chamber and evaluated for % visual injury compared to TC 7 days after treatment (DAT). The data presented in Table 3 indicate a percentage control, where 100% control indicates complete inhibition of growth. […]

Setaria italica (SETIT) [2] = test: Post-emergence herbicidal activity, SETIT; settings: 7 days after treatment; for pest or weed control at 100 ppm: Setaria italica, 168 h, Table 3a; for Post-emergence (100 ppm) SETIT: Table 3b
Protocol: Selected compounds of the invention were screened at 100 PPM against Amaranthus retroflexus (AMARE), Setaria italica (SETIT), and Echinochloa crus-galli (ECHCG).
(§3) Accordingly, PPO susceptible weed seeds were sown in 5″×5″ pots by quadrant containing Miracle-Gro potting mix (Scotts Miracle-Gro Company, Marysville, OH. USA) and grown in a Conviron growth chamber with appropriate growth conditions (temperature of 26/22° C. with photoperiod 16/8 h light day/night and light intensity of 300 μmol m^−2 s^−1 supplemented by LED lamps). Relative humidity in the growth chamber was maintained at around 65%. Plants were grown until 2-4 leaf stage and thinned to 5-8 plants per quadrant per species.
(§4) Compounds were formulated in 25% Acetone, 1% Crop oil concentrate (COC-Agridex), 0.1% Tween-20, and 2.5% Ammonium sulphate (AMS). Three replicate pots were treated with each compound. Treatment consisting of the above formulation excluding active compound was applied as a treatment control (TC). Plants were treated with the test compound solution in a laboratory spray chamber fitted with 8003 flat fan nozzles calibrated to deliver 187-200 L ha^−1 at 269 kPa. Plants were placed back in the growth chamber and evaluated for % visual injury compared to TC 7 days after treatment (DAT). The data presented in Table 3 indicate a percentage control, where 100% control indicates complete inhibition of growth.
(§5) Selected compounds of the invention were screened at 100 PPM against Amaranthus retroflexus (AMARE), Echinochloa crus-galli (ECHCG), Kochia scoparia (KCHSC), and Setaria italica (SETIT).
as §3, with “5″ 5″” for “5″×5″”, “OH,” for “OH.”, “[…]” for “m^−2”

[3] = system: Echinochloa crus-galli (ECHCG); test: Post-emergence herbicidal activity, ECHCG; settings: 7 days after treatment; for pest or weed control at 100 ppm: Echinochloa crus-galli, 168 h, Table 3a; for Post-emergence (100 ppm) ECHCG: Table 3b
Protocol: as §1, §2

Kochia scoparia (KCHSC) [4] = test: Post-emergence herbicidal activity, KCHSC; settings: 7 days after treatment, Table 3b
Protocol: as §5
as §3, with “5″ 5″” for “5″×5″”, “OH,” for “OH.”, “[…]” for “m^−2”
as §4

[5] = system: Amaranthus retroflexus (AMARE); test: Pre-emergence herbicidal activity, AMARE; settings: 7 days after treatment
Excerpt: (§6) Selected compounds of the invention were screened at 200 PPM against Amaranthus retroflexus (AMARE). Echinochloa crus-galli (ECHCG). Kochia scoparia (KCHSC), and Selaria italica (SETIT).
(§7) Accordingly, PPO susceptible weed seeds were planted in 5″×5″ pots by quadrant containing custom field soil mix (Sandy loam with 4.7% OM, pH 7.0) and covered with a fine layer of the same soil. Compounds were formulated in 25% Acetone, 1% Crop oil concentrate (COC-Agridex), 0.1% Tween-20, and 2.5% Ammonium sulphate (AMS). Three replicate pots were treated with each compound. Treatment consisting of the above formulation excluding active compound was applied as a treatment control (TC). Pots were treated with the test compound solution in a laboratory spray chamber fitted with 8003 flat fan nozzles calibrated to deliver 187-200 L ha^−1 at 269 kPa. Compound was incorporated into the soil by simulating rainfall equivalent to 0.2 mm using the same track sprayer. Subsequently, pots were irrigated from the bottom until assessed for % growth and germination inhibition. Pots were placed back in the growth chamber and evaluated for % growth and germination inhibition compared to TC 7 days after treatment (DAT). Growth conditions are similar to the ones mentioned in POST emergence assay.
(§8) The data presented in Table 4 indicate a percentage control, where 100% control indicates complete inhibition of growth.

Kochia scoparia (KCHSC) [6] = test: Pre-emergence herbicidal activity, KCHSC; settings: 7 days after treatment
Excerpt: as §6, §7, §8

Setaria italica (SETIT) [7] = test: Pre-emergence herbicidal activity, SETIT; settings: 7 days after treatment
Excerpt: as §6, §7, §8

[8] = system: Echinochloa crus-galli (ECHCG); test: Pre-emergence herbicidal activity, ECHCG; settings: 7 days after treatment
Excerpt: as §6, §7, §8

Compound	pest or weed control at 100 ppm [1] [%]	pest or weed control at 100 ppm (Setaria italica (SETIT) [2]) [%]	pest or weed control at 100 ppm [3] [%]	Post-emergence (100 ppm) AMARE [1] [%]	Post-emergence (100 ppm) SETIT (Setaria italica (SETIT) [2]) [%]	Post-emergence (100 ppm) ECHCG [3] [%]	Post-emergence (100 ppm) KCHSC (Kochia scoparia (KCHSC) [4]) [%]	Pre-emergence (200 ppm) AMARE [5] [%]	Pre-emergence (200 ppm) KCHSC (Kochia scoparia (KCHSC) [6]) [%]	Pre-emergence (200 ppm) SETIT (Setaria italica (SETIT) [7]) [%]	Pre-emergence (200 ppm) ECHCG [8] [%]
CN(CC(=O)O)C(=O)CN1C(=O)C(F)(F)Oc2cc(F)c(-c3c(F)c(F)c(F)c(F)c3F)cc21 [Compound 85, N-methyl-N-(2-(2,2,7-trifluoro-3-oxo-6-(perfluorophenyl)-2,3-dihydro-4H-benzo[b][1,4]oxazin-4-yl)acetyl)glycine]	100	88	25	–	–	–	–	–	–	–	–
C[C@@H](C(=O)O)N1C(=O)C(F)(F)Oc2cc(F)c(-c3c(F)cc(F)c(F)c3F)cc21 [Compound 78, (2S)-2-(2,2,7-trifluoro-3-oxo-6-(2,3,4,6-tetrafluorophenyl)-2,3-dihydro-4H-benzo[b][1,4]oxazin-4-yl)propanoic acid]	100	100	70	100	100	70	93	100	60	18	5
COC(=O)[C@@H](C)N1C(=O)C(F)(F)Oc2cc(F)c(-c3c(F)c(F)c(F)c(F)c3F)cc21 [Compound 8, methyl (R)-2-(2,2,7-trifluoro-3-oxo-6-(perfluorophenyl)-2,3-dihydro-4H-benzo[b][1,4]oxazin-4-yl)propanoate]	80	75	45	–	–	–	–	–	–	–	–
COC(=O)[C@@H]1CCCN1C(=O)CN1C(=O)C(F)(F)Oc2cc(F)c(-c3c(F)c(F)c(F)c(F)c3F)cc21 [Compound 74, methyl (2-(2,2,7-trifluoro-3-oxo-6-(perfluorophenyl)-2,3-dihydro-4H-benzo[b][1,4]oxazin-4-yl)acetyl)-L-prolinate]	100	100	33	–	–	–	–	–	–	–	–
COC(=O)[C@H](OC)N1C(=O)C(F)(F)Oc2cc(F)c(-c3c(F)c(F)c(F)c(F)c3F)cc21 [Compound 185, methyl (S)-2-methoxy-2-(2,2,7-trifluoro-3-oxo-6-(perfluorophenyl)-2,3-dihydro-4H-benzo[b][1,4]oxazin-4-yl)acetate]	–	–	–	100	100	50	100	100	83	100	43
COC(=O)CCN(C)C(=O)CN1C(=O)C(F)(F)Oc2cc(F)c(-c3c(F)c(F)c(F)c(F)c3F)cc21 [Compound 80, methyl 3-(N-methyl-2-(2,2,7-trifluoro-3-oxo-6-(perfluorophenyl)-2,3-dihydro-4H-benzo[b][1,4]oxazin-4-yl)acetamido)propanoate]	100	93	75	100	93	75	20	98	0	3	0
COC(=O)[C@@H](C)N1C(=O)C(F)(F)Oc2cc(F)c(-c3c(F)cc(F)c(F)c3F)cc21 [Compound 77, methyl (2R)-2-(2,2,7-trifluoro-3-oxo-6-(2,3,4,6-tetrafluorophenyl)-2,3-dihydro-4H-benzo[b][1,4]oxazin-4-yl)propanoate]	100	98	88	100	98	88	100	100	0	70	3
COC(=O)CCNC(=O)[C@H](C)N1C(=O)C(F)(F)Oc2cc(F)c(-c3c(F)c(F)c(F)c(F)c3F)cc21 [Compound 130, methyl (S)-3-(2-(2,2,7-trifluoro-3-oxo-6-(perfluorophenyl)-2,3-dihydro-4H-benzo[b][1,4]oxazin-4-yl)propanamido)propanoate]	100	100	92	–	–	–	–	–	–	–	–
C[C@@H](C(=O)O)N1C(=O)C(F)(F)Oc2cc(F)c(-c3c(F)c(F)c(F)c(F)c3F)cc21 [Compound 11, (S)-2-(2,2,7-trifluoro-3-oxo-6-(perfluorophenyl)-2,3-dihydro-4H-benzo[b][1,4]oxazin-4-yl)propanoic acid]	95	96	83	–	–	–	–	–	–	–	–
COC(=O)C1CN(C(=O)CN2C(=O)C(F)(F)Oc3cc(F)c(-c4c(F)c(F)c(F)c(F)c4F)cc32)C1 [Compound 86, methyl 1-(2-(2,2,7-trifluoro-3-oxo-6-(perfluorophenyl)-2,3-dihydro-4H-benzo[b][1,4]oxazin-4-yl)acetyl)azetidine-3-carboxylate]	–	–	–	100	100	69	11	68	27	7	5
COC(=O)CCNC(=O)[C@@H](C)N1C(=O)C(F)(F)Oc2cc(F)c(-c3c(F)c(F)c(F)c(F)c3F)cc21 [Compound 131, methyl (R)-3-(2-(2,2,7-trifluoro-3-oxo-6-(perfluorophenyl)-2,3-dihydro-4H-benzo[b][1,4]oxazin-4-yl)propanamido)propanoate]	100	83	15	–	–	–	–	–	–	–	–
COC(=O)CCN(C)C(=O)[C@H](C)N1C(=O)C(F)(F)Oc2cc(F)c(-c3c(F)c(F)c(F)c(F)c3F)cc21 [Compound 132, methyl (S)-3-(N-methyl-2-(2,2,7-trifluoro-3-oxo-6-(perfluorophenyl)-2,3-dihydro-4H-benzo[b][1,4]oxazin-4-yl)propanamido)propanoate]	100	100	70	–	–	–	–	–	–	–	–

From patent US20250084044A1, “PROTOPORPHYRINOGEN OXIDASE INHIBITORS” (Enko Chem, Inc., priority 2022, published 2025)
